The record followed here is article PMC6828666, “Discovery of holoenzyme-disrupting chemicals as substrate-selective CK2 inhibitors” (Scientific Reports, 2019).

The target in assay [1] is CK2α (Homo sapiens, UniProt P68400). Kind of assay: Steady state kinetic analysis of CK2 inhibition (Lineweaver-Burk). It is filed as biochemical. The arrangement: made in house; host or cells: Escherichia coli (CK2α). The conditions noted are these: for Ki: increasing ATP. As to the method:
Steady state kinetic analysis of compound 1 complexation with CK2 was performed by incubation of CK2α with increasing concentrations of CK2β in the presence of different concentrations of the compound. ATP and eIF2-derived peptide were present at their saturating concentrations, 100 μM and 600 μM, respectively (Fig. 3e).
In the presence of 100 μM of compound 1, adding increasing concentrations of CK2β-dependent peptide at a saturating concentration of ATP (100 μM) had no effect on the extent of inhibition (Fig. 2d) showing that the inhibition is also not competitive with the peptide substrate. Using steady-state kinetic analysis, we examined the effects of increasing ATP concentrations on the inhibition of phosphorylation by compound 1. In the presence of a saturating concentration of the CK2β-dependent peptide substrate (133 μM), increasing ATP concentrations reduced the level of inhibition but could not restore either the maximal velocity of the enzyme, Vmax, or the Michaelis constant, km, for ATP.
For Olig2 phosphorylation assay, GST-Olig2 fusion protein (3.7 μg) was incubated with 200 nM CK2α, in the absence or presence of 50 μM compound 1 and increasing concentrations of CK2β. Samples were analyzed by SDS PAGE and subjected to autoradiography. Phosphoproteins were quantified by densitometry scanning. For eIF2 peptide phosphorylation assay, the CK2β-dependent peptide substrate (600 μM) was incubated with CK2α (40–50 nM) and increasing concentrations of compound 1 or/and CK2β.
Fig. S2. Ki and Ki’ value determination from enzymatic kinetic characterization of CK2 inhibition by compound 1. (a) Ki value has been calculated from linear regression analysis of the slopes (α/Vmax) of the Lineweaver-Burk double reciprocal plots of Fig 2f. (b) Ki’ value has been calculated from linear regression analysis of the y-intercept (α’/Vmax) of Lineweaver-Burk double reciprocal plots of Fig 2f.

Assay [2] has as its system panel of 45 recombinant protein kinases. Kind of assay: Kinase selectivity profiling, whole panel. It is filed as biochemical, human. The conditions noted are these: focused selectivity panel of 45 kinases, 100 μM. As for the experimental part:
Kinase selectivity of compound 1 was assessed using a panel of 45 recombinant protein kinases. The assays were performed at 10 μM ATP in the presence of 100 μM inhibitor using the Kinase profiler panel service (Millipore). Inhibition, expressed as the percent of activity determined in the absence of inhibitor, was calculated from the residual activity measured in the presence of 100 μM inhibitor.
Fig. S4. Kinase selectivity profile of compound 1 on a panel of 45 different protein kinases. The assays were performed at 10 μM ATP in the presence of 100 μM compound 1 using the Upstate Kinase Profiler Panel Service (Millipore). Residual activity in presence of 100 μM compound 1 are depicted in (a) and a graphical representation of the inhibition percentage in the presence of 100 μM compound 1 is shown in (b).

Assay [3] concerns CK2β-depleted MCF10A cells (ΔCK2β). As to the kind of experiment: Cell growth inhibition in CK2β-depleted cells (IncuCyte). The conditions noted are these: 50 μM; ΔCK2β vs WT MCF10A. It is filed as cell-based, human. As to the method: Cells grown on 96-well flat-bottomed plates (Corning Falcon) were tracked using an Essen IncuCyte Zoom live-cell microscopy instrument, an automated live cell imager with high-throughput capabilities and built-in data analysis. Experiments were conducted at 37 °C and 5% CO2. The software incorporated into the IncuCyte Zoom was used to analyze the images.
MCF10A and MDA-MB231 cells were seeded into 96-well plates at a density (1 × 10^4 and 2 × 10^4 cells/well, respectively) and allowed to attach overnight. Bright field images were captured every 3 h for the duration of the experiment. The detection software was calibrated specifically for MCF10A and MDA-MB231 to ensure accurate distinction of cells from empty space. Cell proliferation data were obtained by the cell confluence increment in each of the treatments and expressed as percentage relative to that of control cells.
Fig. S9. […] (a) MCF10A cells were incubated with increasing concentrations of 6 for 24 h. (b) Inset: western blot analysis of CK2 subunits in parental MCF10A cells (WT) or CK2β knockdown MCF10A cells (∆CK2β). Uncropped blots are shown in Supplementary Fig. S16. MCF10A WT (r,p) or MCF10A ∆CK2β (○,●) were incubated with DMSO (r,○) or 50 μM 6 (p,●) for the indicated time. Cell growth was monitored using an Essen IncuCyte Zoom live-cell microscopy incubator. Images were captured every 15 min for the duration of the experiment. […]

Assay [4] has as its target T1, CK2 subunit association in MCF10A cells (Homo sapiens, UniProt P68400).
T1 construct: endogenous in cells; host or cells: MCF10A
As to the kind of experiment: Anti-CK2β immunoprecipitation from treated MCF10A cells. It counts as cell-based. The note with it: 75 μM, 4 h; CK2β-dependent and CK2β-independent substrate; vs DMSO. As to the method: The transient nature of the CK2 holoenzyme has been highlighted by the elucidation of its structure. Furthermore, analysis of the spatiotemporal organization of individual CK2 subunits in living cells has shown that they are highly dynamic[10],[12]. Thus, we evaluated the effect of 6 on the CK2 subunit association in human mammary epithelial cells, using two independent strategies. First, CK2β was immunoprecipitated from extracts of MCF10A cells treated with DMSO as control or 75 μM of 6, and the amount of CK2α or CK2 catalytic activity recovered in the immunoprecipitates were analyzed by western blot and CK2 activity assay.
Anti-CK2β immunoprecipitates were prepared from MCF10A cells incubated with DMSO (0.5%) or 75 μM 6 for 4 h. The corresponding immunoprecipitates were analyzed for the presence of CK2 subunits by Western blot (a) and quantified in (b) or for CK2 activity with CK2β-independent and CK2β-dependent peptide substrate (c). […] (d) In situ proximity ligation images of MCF10A cells incubated with 50 μM 6 for 3 h. (e) Number of fluorescent dots per cell was quantified using the BlobFinder software. n = 120 cells from two independent experiments. Mann Whitney test was used and results were found significant (*p-value = 0.0003 and **p-value = 0.044). TEXT PRINTED IN THE PICTURE: (a) 6: Ratio CK2α/CK2β relative to control: 0.77 (75 μM)

Molecules are shown by their SMILES.

CK2α, sequence (P68400 whole entry): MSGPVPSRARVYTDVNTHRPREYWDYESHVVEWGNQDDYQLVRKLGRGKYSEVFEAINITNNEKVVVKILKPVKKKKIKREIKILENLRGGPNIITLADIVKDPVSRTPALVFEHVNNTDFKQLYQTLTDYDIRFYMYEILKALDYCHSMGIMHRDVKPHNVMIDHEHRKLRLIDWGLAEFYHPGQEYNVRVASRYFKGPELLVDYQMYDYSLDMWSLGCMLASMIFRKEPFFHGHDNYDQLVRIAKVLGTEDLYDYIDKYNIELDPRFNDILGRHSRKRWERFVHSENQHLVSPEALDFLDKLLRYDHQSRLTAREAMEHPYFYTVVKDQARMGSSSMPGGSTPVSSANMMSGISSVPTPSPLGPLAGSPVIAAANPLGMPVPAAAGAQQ
T1 sequence (P68400 whole entry): as above

As a reminder, the Ki is the dissociation constant of the complex between target and ligand, obtained from inhibition or displacement. Take `COc1[nH]c2ccc(F)cc2c1C(=O)OCC1CCN(CCNS(C)(=O)=O)CC1` [Compound 1]: the Ki in assay [1] (for CK2α, Lineweaver-Burk slopes) is 12 µM; in assay [1] (for the CK2α-ATP complex, Lineweaver-Burk y-intercepts), 62 µM. The “Ki' (mixed competitive inhibition towards CK2β)” value in assay [1] (for the CK2α-ATP complex, increasing CK2β, ATP 100 μM, eIF2-derived peptide 600 μM) is around 65 µM. Besides, in assay [2], the Gini coefficient stood at 0.81.
With `COc1[nH]c2ccc(F)cc2c1C(=O)OCC1CCN(CCNS(=O)(=O)c2ccccc2)CC1.Cl` [Compound 6], the “growth inhibition in CK2β-depleted cells compared with WT cells” value in assay [3] was “twice more pronounced”. Also, the “CK2 activity in anti-CK2β precipitates” value in assay [4] was “significantly lower”.
